ChEMBL document CHEMBL1148818, “1,2,4-triazol-3-yl-thiopropyl-tetrahydrobenzazepines: a series of potent and selective dopamine D(3) receptor antagonists” (J Med Chem, 2007)

Key:
[1] = in vivo; conditions: Sprague-Dawley, rat, whole blood
[2] = in vivo; conditions: Sprague-Dawley, rat
[3] = in vivo; conditions: Sprague-Dawley, rat; remark: listed apart in the source
[4] = in vitro; conditions: human, liver microsomes

| SMILES | clearance [1] [mL/min/kg] | Vd [2] [L/kg] | bioavailability [3] [%] | CLint scaled [4] [mL/min/g] |
| --- | --- | --- | --- | --- |
| Cc1ccc2c(-c3nnc(SCCCN4CCc5ccc(-c6cc(C)on6)cc5CC4)n3C)cccc2n1 | 38 | 3.4 | 24 |  |
| Cc1cnc(-c2ccc3c(c2)CCN(CCCSc2nnc(-c4cccn4C)n2C)CC3)o1 |  |  |  | 6.4 |
| Cc1ccc2c(-c3nnc(SCCCN4CCc5ccc(-c6ncc(C)o6)cc5CC4)n3C)cccc2n1 | 59 | 7.9 | 27 | 4.7 |
